Assay results from US20040265323A1, “Compositions comprising pathogen elicited epithelial chemoattractant (eicosanoid hepoxilin A3), inhibitors thereof and methods of use thereof” (priority 2003, published 2004).
“Also recorded” adds a separate entry of the source.

Legend:
Type in all cases: cell-based, human
[1] = tested on: PMN transmigration across T84 cell monolayers; assay: PMN transepithelial migration to imposed gradients of lipids across T84 monolayers; conditions: imposed gradients across T84 cell monolayers, basolateral-to-apical
Description: Crude preparations of PEEC were collected from the apical surface of polarized T84 cell monolayers following infection with S. typhimurium SL1344 as previously described (McCormick et al., 1998). For these experiments, T84 intestinal epithelial cells (passages 45 to 65) were grown in a 1:1 mixture of Dulbecco-Vogt modified Eagles medium and Ham's F-12 medium supplemented with 15 mM Hepes buffer (pH 7.5), 14 mM NaHCO3, 40 mg/liter penicillin, 8 mg/liter ampicillin, 90 mg/liter streptomycin and 5% newborn calf serum. Polarized monolayers of T84 cells were formed and maintained on 0.33 cm^2 ring-supported collagen-coated polycarbonate filters (Costar Corp., Cambridge, Mass.) as previously described (Madara et al., 1992) with recently detailed modifications (Dharmsathaphorn and Madara, 1990). T84 cell monolayers reached a steady-state resistance 4 to 6 days after plating with some variability largely related to cell passage number. Cell culture inserts of inverted monolayers, used to study transmigration of PMN in the physiological basolateral-to-apical direction, were constructed as previously described (Madara et al., 1992; Dharmsathaphorn and Madara, 1990; Nash et al., 1991).
(§1) It was further examined if hepoxilin A3 acts in a gradient fashion to drive PMN migration from the basolateral to the apical epithelial surface. For these experiments, the physiologically directed (basolateral-to-apical) PMN transepithelial migration assay using cell culture inserts of inverted T84 monolayers has been used (McCormick et al., 1993; Parkos et al., 1992). Human PMN were isolated from normal volunteers, as described elsewhere (Parkos et al., 1992; Henson and Oades, 1975). PMN transmigration results were represented as PMN cell equivalents (CE) derived from a daily standard PMN dilution curve. PMN which completely traversed the monolayer were represented as the number of PMN (CE/ml in a total volume of 1 ml). Values were expressed as the mean and SD of an individual experiment done in triplicate repeated at least 3 times.
Arachidonic acid is the initial substrate used by a variety of metabolic pathways involving lipoxygenase (LO) activities—enzymes that add hydroxyl groups at specific carbon atoms of this 20-carbon fatty acid. […] Therefore, in addition to hepoxilin A3, a wide range of arachidonic acid metabolites for their ability to incite the transmigration of PMNs across T84 monolayers in vitro was examined (Table 1). […] This is consistent with previous reports that LTB4 is capable of inducing PMN transmigration.

PMN [2] = assay: PMN intracellular Ca2+ mobilization; conditions: 5 μg/ml, FIG. 4B
Excerpt: Further, crude PEEC preparations were collected from postinfected T84 cells monolayers. Samples were first passed through an Amicon ultra-filtration apparatus (Millipore Corp.; Bedford, Mass.) fitted with a 2,000 Da cut-off membrane. Filtrate components were bound to a Backerbond spe™ octadecyl extraction column (J. T. Baker; Philipsburg, N.J.) that was subsequently eluted with water, hexane, and finally methanol. The methanol fraction was dried under vacuum and resuspended in 50:50 (vol:vol) methanol:2 mM Tris HCl (pH 7.5) and injected onto a Vydac C18 (10 μm; 300 Å) semi-preparative column ([…]) equilibrated with 2 mM Tris-HCl (pH 7.5). A methanol gradient of 1-10% over 10 minutes, then 10-60% over 25 minutes, followed by 60-100% over 45 minutes (all at room temperature) was used to isolate active PEEC fractions. Active fractions, having no detectable absorbance at 280 nm and weak absorbance at 214 nm, were analyzed using a Genesis C18 (4 μm, 120 Å) analytical HPLC column (4.6×150 mm) equilibrated with 5 mM triethylamine/acetic acid (pH 7.2). […] (FIG. 2A and B).
(§2) To substantiate the notion that hepoxilin A3 was in fact the molecule responsible for PEEC bioactivity, it was examined whether synthetic hepoxilin A3 (BIOMOL, Plymouth Meeting, Pa.) could recapitulate PEEC bioactivity. […] Thus, authentic hepoxilin A3 recapitulates all known aspects of PEEC bioactivity consistent with the notion that hepoxilin A3 is in fact PEEC's active component.

PMN [3] = assay: PMN degranulation assessed by elastase release
Excerpt: as §2

[4] = tested on: S. typhimurium-induced PMN transepithelial migration, T84 cells; assay: Inhibition of S. typhimurium-induced PMN transepithelial migration across T84 monolayers; conditions: for inhibition of S. typhimurium-induced PMN transepithelial migration: T84 incubated 1 hour with inhibitor, FIG. 9
Excerpt: as §1, with “PMN transmigration results were represented as PMN cell equivalents (CE) derived from a daily standard PMN dilution curve.” left out
Hepoxilin A3 is formed via the 12-lipoxygenase (LO) metabolism pathway of arachidonic acid. Therefore, the involvement of the 12-LO pathway in the ability of the enteric pathogen, S. typhimurium, to induce PMN transepithelial migration and elicit PEEC secretion was tested. […] For 12-LO inhibition, HBSS(+)-washed T84 cell monolayers were incubated in the presence baicalein [stock concentration at 1 mM in DMSO] for 48 hours at 37° C. Subsequently, S. typhimurium SL1344 was added to the apical surface of the T84 monolayers and after an incubation of 1 hour at 37° C., the cells were washed free of non-adherent bacteria and then processed for the PMN transmigration assay. […] For 5-LO inhibition, the T84 cells were washed with HBSS(+) and then were incubated for 24 hours in the presence of caffeic acid (stock concentration at 22 mM in DMSO). Both inhibitors were purchased form Biomol, Plymouth Meeting, Pa.
In each instance, the T84 cell monolayers were incubated for […] in the presence of the inhibitor prior to the addition of S. typhimurium.

IL-8 secretion = IL-8 secretion by S. typhimurium infected T84 cell monolayers; conditions: S. typhimurium infected T84, caffeic acid 22 μM
[5] = tested on: PEEC/hepoxilin A3 secretion; assay: Apical PEEC/hepoxilin A3 release from S. typhimurium infected T84 cell monolayers
Excerpt: T84 cell monolayers were infected with S. typhimurium in the absence or presence of the 12-LO enzyme inhibitor and apical supernatants were examined for PEEC bioactivity. […] Moreover, since it had been previously shown that S. typhimurium via its effector SipA initiates an ARF6-dependent lipid-signaling cascade that directs the activation of PKC and release of PEEC, it was further examined if blocking PKC activity (which would occur upstream of 12-LO) also corresponds with a reduction in hepoxilin A3 bioactivity and release, as one would predict.

| SMILES | PMN transepithelial migration (PEEC activity) induced by added lipid [1] | other results |
| --- | --- | --- |
| CCCCC/C=C\C[C@@H](O)/C=C/C=C/C=C/[C@@H](O)CCCC(=O)O (relative stereo) [trans LTB4] | failed to support events observed with hepoxilin A3 |  |
| CCCCC/C=C\C/C=C\C/C=C\C=C\C(=O)CCCC(=O)O [5-KETE] | failed to effect a transmigration of PMNs |  |
| CCCCC/C=C\C[C@@H](O)/C=C/C=C\C/C=C\CCCC(=O)O [12(R)-HETE] | no PMN transmigration activity was observed | intracellular Ca2+ in PMN (PMN [2]): failed to cause an increase in Ca^2+ mobilization |
| CCCCC/C=C\C[C@H](O)/C=C/C=C\C/C=C\CCCC(=O)O [12(S)-HETE] | no PMN transmigration activity was observed |  |
| CCCCC[C@H](O)/C=C/C=C\C/C=C\C/C=C\CCCC(=O)O [15(S)-HETE] | only a low activity of PMN transmigration was observed |  |
| CCCCC/C=C\C/C=C\C/C=C\C/C=C\CCCC(=O)O [Arachidonic acid] | could enhance the amount of PMN transmigration |  |
| CCCCC/C=C\C[C@@H](O)/C=C/C=C/C=C\[C@@H](O)CCCC(=O)O [LTB4] |  | PMN degranulation (PMN [3]): causes activation and degranulation |
| O=C(O)/C=C/c1ccc(O)c(O)c1 [caffeic acid] |  | S. typhimurium-induced PMN transepithelial migration with lipoxygenase inhibitor ([4]; T84 pre-treated: baicalein 48 hours, caffeic acid 24 hours): failed to prevent S. typhimurium-induced PMN transepithelial migration; also recorded: no inhibition; IL-8 secretion (IL-8 secretion): 558 ± 26 pg/mL |
| COc1ccc2c(c[n+](C)c3c4cc5c(cc4ccc23)OCO5)c1OC.[Cl-] [chelerethyrine chloride] |  | PEEC/hepoxilin A3 release ([5]; 5 μM prior to infection with wild-type S. typhimurium): < 1.0 pmol |
| C=C(CC)C(=O)c1ccc(OCC(=O)O)c(Cl)c1Cl [ethacrynic acid] |  | inhibition of S. typhimurium-induced PMN transepithelial migration [4]: significantly inhibited |
| CCCCC/C=C\C[C@@H]1O[C@H]1C(O)/C=C\C/C=C\CCCC(=O)O (stereo partly shown) [hepoxilin B3] | inactive; also recorded: failed to support events observed with hepoxilin A3 |  |
| CCCCC/C=C\C/C=C\CCCCCCCC(=O)O [linoleic acid] | failed to demonstrate any PEEC activity |  |
| CCCN(CCC)S(=O)(=O)c1ccc(C(=O)O)cc1 [probenecid] |  | inhibition of S. typhimurium-induced PMN transepithelial migration [4]: significantly inhibited |
| CC[C@]1(O)C[C@@H]2CN(CCc3c([nH]c4ccccc34)[C@@](C(=O)OC)(c3cc4c(cc3OC)N(C)[C@H]3[C@@](O)(C(=O)OC)[C@H](OC(C)=O)[C@]5(CC)C=CCN6CC[C@]43[C@@H]65)C2)C1 [vinblastine] |  | inhibition at 0.0005 µM ([5]; Homo sapiens, ~0.5 nM, pathogen-induced, T84, read-out: inhibition of hepoxilin A3 secreted): ~60% |
